One experiment deals with T1, FKBP52 (Homo sapiens, UniProt Q02790).
T1 sequence (Q02790 50-138 limits assumed): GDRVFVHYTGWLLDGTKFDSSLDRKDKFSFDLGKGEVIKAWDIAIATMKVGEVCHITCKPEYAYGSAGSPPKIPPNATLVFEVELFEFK
In words: Fluorescence polarization (FP) assay, binding to the FK506-binding domain of FKBP52. The following applies: FK506-binding domain of FKBP52 (FKBP52FK1), competition with fluorescent ligand 2b. An outline of the steps: (§1)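 Competitive FP with fluorescent ligand 2b at 20 nM (2× concentration) and FK1 domain at 280 nM (FKBP51) or 400 nM (FKBP52) in 20 mM HEPES pH 8, 0.01% Triton-X100. Anisotropy read after 30 min at room temperature (ex 485, em 535 nm), in duplicate; IC50 by four-parameter fit, Ki via Wang competitive equation.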
(Fluorescence polarisation rises when a labelled molecule tumbles more slowly, as on binding a larger partner.)

The next experiment has as its target T2, FKBP51 (Homo sapiens, UniProt Q13451).
T2 sequence (Q13451 42-130 limits assumed): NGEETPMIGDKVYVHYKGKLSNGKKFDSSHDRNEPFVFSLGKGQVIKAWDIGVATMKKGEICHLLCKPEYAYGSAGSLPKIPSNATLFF
Description: Fluorescence polarization (FP) assay, binding to the FK506-binding domain of FKBP51. Conditions: FK506-binding domain of FKBP51 (FKBP51FK1), competition with fluorescent ligand 2b. An outline of the steps:
as §1

Some results are limits rather than exact numbers.

The Ki is the dissociation constant of the complex between target and ligand, obtained from inhibition or displacement. A low value points to a stronger hold on the target.

`C=C[C@@H]1CN(Cc2ccccn2)C(=O)[C@@H]2CCC[C@H]1N2S(=O)(=O)c1cc(Cl)c(O)c(Cl)c1` [Compound K8, (1S,5R,6R)-10-((3,5-dichloro-4-hydroxyphenyl)sulfonyl)-3-(pyridin-2-ylmethyl)-5-vinyl-3,10-diazabicyclo[4.3.1]decan-2-one]: the Ki at FKBP52 and on FKBP51 was 100 to 500 nM each time.

Consider `C=C[C@@H]1CN(Cc2ccccn2)C(=O)[C@@H]2CCC[C@H]1N2S(=O)(=O)c1cc(Br)cc(C(N)=O)c1` [Compound K18, 3-bromo-5-(((1S,5R,6R)-2-oxo-3-(pyridin-2-ylmethyl)-5-vinyl-3,10-diazabicyclo[4.3.1]decan-10-yl)sulfonyl)benzamide], for which the Ki at FKBP52 and at FKBP51 was 100 to 500 nM each time.

Regarding `C=C[C@@H]1CN(Cc2ccccn2)C(=O)[C@@H]2CCC[C@H]1N2S(=O)(=O)c1cc(Cl)cc(C(N)=O)c1` [Compound K19, 3-chloro-5-(((1S,5R,6R)-2-oxo-3-(pyridin-2-ylmethyl)-5-vinyl-3,10-diazabicyclo[4.3.1]decan-10-yl)sulfonyl)benzamide], the Ki at FKBP52 and at FKBP51 was 100 to 500 nM throughout.

With `C=C[C@@H]1CN(Cc2ccccn2)C(=O)[C@@H]2CCC[C@H]1N2S(=O)(=O)c1cc(Cl)c(NC(C)=O)c(Cl)c1` [Compound K22, N-(2,6-dichloro-4-(((1S,5R,6R)-2-oxo-3-(pyridin-2-ylmethyl)-5-vinyl-3,10-diazabicyclo[4.3.1]decan-10-yl)sulfonyl)phenyl)acetamide], the Ki at FKBP52 and at FKBP51 was at most 100 nM each time.

Consider `C=C[C@@H]1CN(Cc2ccccn2)C(=O)[C@@H]2CCC[C@H]1N2S(=O)(=O)c1cccc(C(=O)OC)c1` [Compound K23, methyl 3-(((1S,5R,6R)-2-oxo-3-(pyridin-2-ylmethyl)-5-vinyl-3,10-diazabicyclo[4.3.1]decan-10-yl)sulfonyl)benzoate], for which the inhibition constant Ki on FKBP52 and on FKBP51 was 500 to 1000 nM throughout.

Take `C=C[C@@H]1CN(Cc2ccccn2)C(=O)[C@@H]2CCC[C@H]1N2S(=O)(=O)c1cc(Cl)cc(C(=O)OC)c1` [Compound K25, methyl 3-chloro-5-(((1S,5R,6R)-2-oxo-3-(pyridin-2-ylmethyl)-5-vinyl-3,10-diazabicyclo[4.3.1]decan-10-yl)sulfonyl)benzoate]: the inhibitory constant (Ki) on FKBP52 and on FKBP51 was at most 100 nM in each case.

Consider `C=C[C@@H]1CN(Cc2ccccn2)C(=O)[C@@H]2CCC[C@H]1N2S(=O)(=O)c1ccc(-c2ccccc2)nc1` [Compound K27, (1S,5R,6R)-10-((6-phenylpyridin-3-yl)sulfonyl)-3-(pyridin-2-ylmethyl)-5-vinyl-3,10-diazabicyclo[4.3.1]decan-2-one], for which the Ki on FKBP52 and at FKBP51 was 100 to 500 nM each time.

With `CN(C)C[C@H]1CN(Cc2ccccn2)C(=O)[C@@H]2CCC[C@H]1N2S(=O)(=O)c1cc(Cl)cc(Cl)c1` [Compound M2, (1S,5S,6R)-10-((3,5-dichlorophenyl)sulfonyl)-5-((dimethylamino)methyl)-3-(pyridin-2-ylmethyl)-3,10-diazabicyclo[4.3.1]decan-2-one], the inhibition constant Ki on FKBP52 and at FKBP51 was at most 100 nM throughout.

Take `O=C1[C@@H]2CCC[C@H]([C@@H](C(F)F)CN1Cc1ccccn1)N2S(=O)(=O)c1cc(Cl)cc(Cl)c1` [Compound M3, (1S,5S,6R)-10-((3,5-dichlorophenyl)sulfonyl)-5-(difluoromethyl)-3-(pyridin-2-ylmethyl)-3,10-diazabicyclo[4.3.1]decan-2-one]: the Ki at FKBP52 and at FKBP51 was at most 100 nM throughout.

As for `O=C1[C@@H]2CCC[C@H]([C@@H](CF)CN1Cc1ccccn1)N2S(=O)(=O)c1cc(Cl)cc(Cl)c1` [Compound M4, (1S,5S,6R)-10-((3,5-dichlorophenyl)sulfonyl)-5-(fluoromethyl)-3-(pyridin-2-ylmethyl)-3,10-diazabicyclo[4.3.1]decan-2-one], the inhibition constant Ki at FKBP52 and on FKBP51 was at most 100 nM each time.

With `CCOC[C@H]1CN(Cc2ccccn2)C(=O)[C@@H]2CCC[C@H]1N2S(=O)(=O)c1cc(Cl)cc(Cl)c1` [Compound M6, (1S,5S,6R)-10-((3,5-dichlorophenyl)sulfonyl)-5-(ethoxymethyl)-3-(pyridin-2-ylmethyl)-3,10-diazabicyclo[4.3.1]decan-2-one], the Ki at FKBP52 and at FKBP51 was at most 100 nM throughout.

Take `C#CCN1C[C@H](COC)[C@H]2CCC[C@@H](C1=O)N2S(=O)(=O)c1cc(Br)cc(Br)c1` [Compound N3, (1S,5S,6R)-10-((3,5-dibromophenyl)sulfonyl)-5-(methoxymethyl)-3-(prop-2-yn-1-yl)-3,10-diazabicyclo[4.3.1]decan-2-one]: the Ki on FKBP52 and on FKBP51 was 100 to 500 nM in each case.

For `C#CCN1C[C@H](COC)[C@H]2CCC[C@@H](C1=O)N2S(=O)(=O)c1cccc(C(N)=O)c1` [Compound N4, 3-(((1S,5S,6R)-5-(methoxymethyl)-2-oxo-3-(prop-2-yn-1-yl)-3,10-diazabicyclo[4.3.1]decan-10-yl)sulfonyl)benzamide], the Ki at FKBP52 and on FKBP51 was 100 to 500 nM throughout.

On to `C#CCN1C[C@H](COC)[C@H]2CCC[C@@H](C1=O)N2S(=O)(=O)c1cc(Br)cc(C(N)=O)c1` [Compound N5, 3-bromo-5-(((1S,5S,6R)-5-(methoxymethyl)-2-oxo-3-(prop-2-yn-1-yl)-3,10-diazabicyclo[4.3.1]decan-10-yl)sulfonyl)benzamide], for which the Ki at FKBP52 and at FKBP51 was 100 to 500 nM each time.

As to `C#CCN1C[C@H](COC)[C@H]2CCC[C@@H](C1=O)N2S(=O)(=O)c1cc(Cl)cc(C(N)=O)c1` [Compound N6, 3-chloro-5-(((1S,5S,6R)-5-(methoxymethyl)-2-oxo-3-(prop-2-yn-1-yl)-3,10-diazabicyclo[4.3.1]decan-10-yl)sulfonyl)benzamide], the Ki at FKBP52 and on FKBP51 was 100 to 500 nM each time.

For the molecule `C#CCN1C[C@H](COC)[C@H]2CCC[C@@H](C1=O)N2S(=O)(=O)c1ccc(NC(C)=O)c(Br)c1` [Compound N7, N-(2-bromo-4-(((1S,5S,6R)-5-(methoxymethyl)-2-oxo-3-(prop-2-yn-1-yl)-3,10-diazabicyclo[4.3.1]decan-10-yl)sulfonyl)phenyl)acetamide], the Ki on FKBP52 and at FKBP51 was 100 to 500 nM throughout.

As to `C#CCN1C[C@H](COC)[C@H]2CCC[C@@H](C1=O)N2S(=O)(=O)c1ccc(NC(C)=O)c(Cl)c1` [Compound N8, N-(2-chloro-4-(((1S,5S,6R)-5-(methoxymethyl)-2-oxo-3-(prop-2-yn-1-yl)-3,10-diazabicyclo[4.3.1]decan-10-yl)sulfonyl)phenyl)acetamide], the inhibition constant Ki at FKBP52 and at FKBP51 was 100 to 500 nM in each case.

Turning to `C#CCN1C[C@H](COC)[C@H]2CCC[C@@H](C1=O)N2S(=O)(=O)c1cc(Cl)c(NC(C)=O)c(Cl)c1` [Compound N9, N-(2,6-dichloro-4-(((1S,5S,6R)-5-(methoxymethyl)-2-oxo-3-(prop-2-yn-1-yl)-3,10-diazabicyclo[4.3.1]decan-10-yl)sulfonyl)phenyl)acetamide], the Ki at FKBP52 and at FKBP51 was 100 to 500 nM each time.

For the molecule `C#CCN1C[C@H](COC)[C@H]2CCC[C@@H](C1=O)N2S(=O)(=O)c1cccc(C(=O)OC)c1` [Compound N10, methyl 3-(((1S,5S,6R)-5-(methoxymethyl)-2-oxo-3-(prop-2-yn-1-yl)-3,10-diazabicyclo[4.3.1]decan-10-yl)sulfonyl)benzoate], the Ki at FKBP52 and on FKBP51 was 100 to 500 nM throughout.

Turning to `C#CCN1C[C@H](COC)[C@H]2CCC[C@@H](C1=O)N2S(=O)(=O)c1cc(Br)cc(C(=O)OC)c1` [Compound N11, methyl 3-bromo-5-(((1S,5S,6R)-5-(methoxymethyl)-2-oxo-3-(prop-2-yn-1-yl)-3,10-diazabicyclo[4.3.1]decan-10-yl)sulfonyl)benzoate], the Ki on FKBP52 and on FKBP51 was 100 to 500 nM throughout.

`C#CCN1C[C@H](COC)[C@H]2CCC[C@@H](C1=O)N2S(=O)(=O)c1cc(Cl)cc(C(=O)OC)c1` [Compound N12, methyl 3-chloro-5-(((1S,5S,6R)-5-(methoxymethyl)-2-oxo-3-(prop-2-yn-1-yl)-3,10-diazabicyclo[4.3.1]decan-10-yl)sulfonyl)benzoate]: the Ki at FKBP52 and on FKBP51 was 100 to 500 nM each time.

Consider `C#CCN1C[C@H](COC)[C@H]2CCC[C@@H](C1=O)N2S(=O)(=O)c1cccnc1` [Compound N13, (1S,5S,6R)-5-(methoxymethyl)-3-(prop-2-yn-1-yl)-10-(pyridin-3-ylsulfonyl)-3, 10-diazabicyclo[4.3.1]decan-2-one], for which the Ki on FKBP52 and at FKBP51 was 500 to 1000 nM in each case.

In the case of `C#CCN1C[C@H](COC)[C@H]2CCC[C@@H](C1=O)N2S(=O)(=O)c1ccc(-c2ccccc2)nc1` [Compound N14, (1S,5S,6R)-5-(methoxymethyl)-10-((6-phenylpyridin-3-yl)sulfonyl)-3-(prop-2-yn-1-yl)-3,10-diazabicyclo[4.3.1]decan-2-one], the Ki on FKBP52 and on FKBP51 was 100 to 500 nM throughout.

On to `C#CCN1C[C@H](COC)[C@H]2CCC[C@@H](C1=O)N2S(=O)(=O)c1ccc(-c2ncccn2)cc1` [Compound N15, (1S,5S,6R)-5-(methoxymethyl)-3-(prop-2-yn-1-yl)-10-((4-(pyrimidin-2-yl)phenyl)sulfonyl)-3,10-diazabicyclo[4.3.1]decan-2-one], for which the Ki at FKBP52 and on FKBP51 was 100 to 500 nM in each case.
